Where two headings read alike, the source gives them in different places.
Assays:
[1] = target: EGFR Del19/T790M/C797S (Homo sapiens, UniProt P00533, C797S/DEL746-750/T790M); experiment: Biochemical EGFR kinase inhibition assay (Lance Ultra TR-FRET), triple mutant del19/T790M/C797S
Summary of the method: (§1)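 Enzyme reactions lasted 1 hour at room temperature with test compounds between 0.003 and 10 μM, followed by 10 mM EDTA quench.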

[2] = target: EGFR L858R/T790M/C797S (Homo sapiens, UniProt P00533, C797S/L858R/T790M); experiment: Biochemical EGFR kinase inhibition assay (Lance Ultra TR-FRET), triple mutant L858R/T790M/C797S
Summary of the method: as §1

[3] = target: EGFR Del19/C797S (Homo sapiens, UniProt P00533, C797S/DEL746-750); experiment: Biochemical EGFR kinase inhibition assay (Lance Ultra TR-FRET), double mutant del19/C797S
Summary of the method: as §1

[4] = target: EGFR L858R/C797S (Homo sapiens, UniProt P00533, C797S/L858R); experiment: Biochemical EGFR kinase inhibition assay (Lance Ultra TR-FRET), double mutant L858R/C797S
Summary of the method: as §1

[5] = target: EGFR wildtype (WT) (Homo sapiens, UniProt P00533); experiment: Biochemical EGFR kinase inhibition assay (Lance Ultra TR-FRET), wildtype
Summary of the method: as §1

[6] = IC50 Del19/T790M/C797S (nM), 100 μM ATP
[7] = Km ATP, read-out: IC50 Del19/T790M/C797S (nM) Km ATP
[8] = IC50 L858R/T790M/C797S (nM), 100 μM ATP
[9] = Km ATP, read-out: IC50 L858R/T790M/C797S (nM) Km ATP
[10] = IC50 Del19/C797S (nM), 100 μM ATP
[11] = Km ATP, read-out: IC50 Del19/C797S (nM) Km ATP
[12] = Km ATP, read-out: IC50 L858R/C797S (nM) Km ATP
[13] = Km ATP, read-out: IC50 WT (nM) Km ATP
[14] = ATP at Km, read-out: IC50 Del19/T790M/C797S (nM), Km ATP
[15] = ATP at Km, read-out: IC50 L858R/T790M/C797S (nM), Km ATP
[16] = ATP at Km, read-out: IC50 Del19/C797S (nM), Km ATP
[17] = ATP at Km, read-out: IC50 L858R/C797S (nM), Km ATP
[18] = IC50 L858R/C797S (nM), 100 μM ATP
[19] = ATP at Km, read-out: IC50 WT (nM), Km ATP
[20] = Km ATP, read-out: IC50 Del19/C797S (nM), Km ATP
[21] = Km ATP, read-out: IC50 L858R/C797S (nM), Km ATP
[22] = Km ATP, read-out: IC50 WT (nM), Km ATP

Chain of EGFR Del19/T790M/C797S (P00533 with tags, fused parts or gaps DEL746-750/T790M/C797S): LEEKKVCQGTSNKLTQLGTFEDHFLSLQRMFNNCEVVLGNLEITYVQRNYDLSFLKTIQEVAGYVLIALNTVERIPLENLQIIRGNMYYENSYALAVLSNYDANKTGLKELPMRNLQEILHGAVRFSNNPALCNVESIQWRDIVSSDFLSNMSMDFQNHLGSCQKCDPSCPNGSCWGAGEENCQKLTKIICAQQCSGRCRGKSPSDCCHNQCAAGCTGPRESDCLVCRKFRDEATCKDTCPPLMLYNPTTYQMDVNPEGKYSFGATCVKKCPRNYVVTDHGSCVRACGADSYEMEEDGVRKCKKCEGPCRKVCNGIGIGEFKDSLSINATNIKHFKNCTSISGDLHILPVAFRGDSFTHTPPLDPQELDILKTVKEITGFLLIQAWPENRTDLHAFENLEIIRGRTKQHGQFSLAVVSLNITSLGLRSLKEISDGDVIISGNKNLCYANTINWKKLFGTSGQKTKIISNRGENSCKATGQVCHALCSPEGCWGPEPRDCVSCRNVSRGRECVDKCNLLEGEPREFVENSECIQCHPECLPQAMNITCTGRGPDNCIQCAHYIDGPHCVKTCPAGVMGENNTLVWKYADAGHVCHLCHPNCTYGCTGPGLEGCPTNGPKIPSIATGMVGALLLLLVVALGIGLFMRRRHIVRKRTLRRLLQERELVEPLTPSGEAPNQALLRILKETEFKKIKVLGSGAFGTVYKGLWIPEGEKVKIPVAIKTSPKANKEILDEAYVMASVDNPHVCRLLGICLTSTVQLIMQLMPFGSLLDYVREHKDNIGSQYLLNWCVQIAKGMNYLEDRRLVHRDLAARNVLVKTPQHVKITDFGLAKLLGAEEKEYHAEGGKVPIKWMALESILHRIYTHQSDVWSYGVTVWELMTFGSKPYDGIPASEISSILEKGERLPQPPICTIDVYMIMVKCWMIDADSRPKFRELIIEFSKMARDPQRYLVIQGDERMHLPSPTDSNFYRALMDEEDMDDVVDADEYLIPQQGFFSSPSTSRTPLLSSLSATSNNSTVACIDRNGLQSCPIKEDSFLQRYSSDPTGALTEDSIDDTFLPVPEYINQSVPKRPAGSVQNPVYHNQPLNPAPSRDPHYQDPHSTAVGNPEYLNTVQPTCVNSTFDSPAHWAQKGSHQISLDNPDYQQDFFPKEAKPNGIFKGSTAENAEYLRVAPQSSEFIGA
Chain of EGFR L858R/T790M/C797S (P00533 25-1210 T790M/C797S/L858R): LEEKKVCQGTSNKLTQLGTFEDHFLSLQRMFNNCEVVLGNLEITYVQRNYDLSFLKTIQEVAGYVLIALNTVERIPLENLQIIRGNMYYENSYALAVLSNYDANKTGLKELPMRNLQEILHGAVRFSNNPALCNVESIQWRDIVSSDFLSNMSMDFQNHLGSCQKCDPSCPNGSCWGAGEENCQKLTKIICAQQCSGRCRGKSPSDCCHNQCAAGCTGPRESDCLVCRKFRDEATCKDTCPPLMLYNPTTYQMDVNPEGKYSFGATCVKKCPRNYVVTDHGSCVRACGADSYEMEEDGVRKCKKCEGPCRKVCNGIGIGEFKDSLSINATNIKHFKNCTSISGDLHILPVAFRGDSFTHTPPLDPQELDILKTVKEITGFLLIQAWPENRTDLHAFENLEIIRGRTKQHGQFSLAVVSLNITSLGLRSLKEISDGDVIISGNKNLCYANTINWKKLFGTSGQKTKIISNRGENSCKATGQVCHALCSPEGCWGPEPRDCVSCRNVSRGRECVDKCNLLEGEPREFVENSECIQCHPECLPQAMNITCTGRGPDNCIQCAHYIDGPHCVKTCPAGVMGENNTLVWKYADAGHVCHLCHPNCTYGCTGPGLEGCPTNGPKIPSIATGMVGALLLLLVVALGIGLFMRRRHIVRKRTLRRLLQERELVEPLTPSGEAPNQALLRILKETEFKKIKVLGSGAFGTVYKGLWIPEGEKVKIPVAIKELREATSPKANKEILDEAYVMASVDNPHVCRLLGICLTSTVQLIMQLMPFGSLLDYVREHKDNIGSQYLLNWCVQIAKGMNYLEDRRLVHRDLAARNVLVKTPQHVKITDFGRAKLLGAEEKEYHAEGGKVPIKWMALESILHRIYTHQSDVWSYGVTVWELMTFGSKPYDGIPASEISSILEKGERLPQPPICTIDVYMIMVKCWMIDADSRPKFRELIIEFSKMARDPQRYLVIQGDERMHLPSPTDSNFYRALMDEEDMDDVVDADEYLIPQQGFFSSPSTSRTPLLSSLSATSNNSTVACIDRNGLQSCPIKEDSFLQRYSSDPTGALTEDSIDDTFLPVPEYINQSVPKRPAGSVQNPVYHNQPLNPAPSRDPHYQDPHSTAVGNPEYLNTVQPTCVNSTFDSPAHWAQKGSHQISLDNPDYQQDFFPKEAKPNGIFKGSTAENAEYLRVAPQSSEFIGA
Chain of EGFR wildtype (WT) (P00533 25-1210): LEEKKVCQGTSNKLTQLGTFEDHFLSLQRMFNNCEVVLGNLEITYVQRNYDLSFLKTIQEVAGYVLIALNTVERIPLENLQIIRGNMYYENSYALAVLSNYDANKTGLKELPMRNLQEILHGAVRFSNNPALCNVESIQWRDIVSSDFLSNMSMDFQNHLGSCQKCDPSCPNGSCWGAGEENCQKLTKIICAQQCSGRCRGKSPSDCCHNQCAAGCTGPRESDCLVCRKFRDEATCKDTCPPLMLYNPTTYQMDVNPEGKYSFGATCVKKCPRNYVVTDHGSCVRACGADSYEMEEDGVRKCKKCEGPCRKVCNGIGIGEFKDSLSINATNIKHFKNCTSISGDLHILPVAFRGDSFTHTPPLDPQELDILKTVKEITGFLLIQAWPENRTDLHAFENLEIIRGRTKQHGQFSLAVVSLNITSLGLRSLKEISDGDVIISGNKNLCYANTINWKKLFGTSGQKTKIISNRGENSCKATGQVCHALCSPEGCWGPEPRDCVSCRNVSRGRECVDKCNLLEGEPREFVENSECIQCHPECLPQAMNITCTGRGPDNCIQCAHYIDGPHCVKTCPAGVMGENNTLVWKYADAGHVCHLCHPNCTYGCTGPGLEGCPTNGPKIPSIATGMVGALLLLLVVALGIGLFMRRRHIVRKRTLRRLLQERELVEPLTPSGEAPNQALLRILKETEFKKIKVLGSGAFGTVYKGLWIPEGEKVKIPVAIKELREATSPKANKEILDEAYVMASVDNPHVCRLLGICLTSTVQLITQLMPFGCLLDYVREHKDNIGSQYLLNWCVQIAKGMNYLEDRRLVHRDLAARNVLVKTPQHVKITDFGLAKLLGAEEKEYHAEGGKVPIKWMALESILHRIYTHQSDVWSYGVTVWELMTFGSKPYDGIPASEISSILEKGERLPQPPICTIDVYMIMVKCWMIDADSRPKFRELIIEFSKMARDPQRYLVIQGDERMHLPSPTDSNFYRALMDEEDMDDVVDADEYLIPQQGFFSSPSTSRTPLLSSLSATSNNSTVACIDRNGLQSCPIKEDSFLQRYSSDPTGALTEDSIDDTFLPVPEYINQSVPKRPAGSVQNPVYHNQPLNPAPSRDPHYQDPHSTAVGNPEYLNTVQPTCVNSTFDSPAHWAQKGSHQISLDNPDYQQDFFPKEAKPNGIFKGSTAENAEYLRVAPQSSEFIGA
Chain of EGFR Del19/C797S (P00533 with tags, fused parts or gaps DEL746-750/C797S): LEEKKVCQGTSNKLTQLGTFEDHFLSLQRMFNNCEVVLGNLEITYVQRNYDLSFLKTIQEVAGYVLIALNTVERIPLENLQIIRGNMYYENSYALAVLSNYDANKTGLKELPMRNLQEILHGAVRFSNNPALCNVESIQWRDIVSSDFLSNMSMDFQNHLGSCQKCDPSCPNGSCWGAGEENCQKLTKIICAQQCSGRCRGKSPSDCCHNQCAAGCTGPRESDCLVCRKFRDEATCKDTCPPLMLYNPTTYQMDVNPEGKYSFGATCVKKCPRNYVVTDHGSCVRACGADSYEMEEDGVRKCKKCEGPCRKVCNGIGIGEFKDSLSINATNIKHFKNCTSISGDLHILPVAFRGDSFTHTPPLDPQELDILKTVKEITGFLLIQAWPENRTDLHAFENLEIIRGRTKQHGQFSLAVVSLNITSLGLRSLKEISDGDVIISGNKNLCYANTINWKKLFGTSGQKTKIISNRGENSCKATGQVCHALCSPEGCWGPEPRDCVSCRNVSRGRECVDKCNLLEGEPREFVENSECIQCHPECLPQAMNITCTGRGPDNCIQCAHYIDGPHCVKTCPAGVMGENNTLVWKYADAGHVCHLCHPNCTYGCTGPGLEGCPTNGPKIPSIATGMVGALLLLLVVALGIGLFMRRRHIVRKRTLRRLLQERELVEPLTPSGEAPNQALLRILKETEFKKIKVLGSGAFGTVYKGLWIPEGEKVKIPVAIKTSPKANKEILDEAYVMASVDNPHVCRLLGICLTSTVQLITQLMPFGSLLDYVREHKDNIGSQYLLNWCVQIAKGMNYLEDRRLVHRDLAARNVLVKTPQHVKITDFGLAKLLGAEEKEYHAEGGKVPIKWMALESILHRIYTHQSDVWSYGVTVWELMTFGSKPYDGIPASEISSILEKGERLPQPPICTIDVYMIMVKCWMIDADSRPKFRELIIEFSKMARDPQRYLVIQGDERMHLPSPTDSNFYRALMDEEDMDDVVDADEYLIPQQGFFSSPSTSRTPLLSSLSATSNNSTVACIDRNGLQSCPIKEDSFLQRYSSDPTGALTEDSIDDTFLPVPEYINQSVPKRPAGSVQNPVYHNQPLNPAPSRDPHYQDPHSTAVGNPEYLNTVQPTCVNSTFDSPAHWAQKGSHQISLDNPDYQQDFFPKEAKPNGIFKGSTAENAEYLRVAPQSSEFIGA

IC50 [1, 6] [nM]	IC50 [1, 7] [nM]	IC50 [2, 8] [nM]	IC50 [2, 9] [nM]	IC50 [3, 10] [nM]	IC50 [3, 11] [nM]	IC50 [4, 12] [nM]	IC50 ([5]; IC50 WT (nM), 100 μM ATP) [nM]	IC50 [5, 13] [nM]	IC50 [1, 14] [nM]	IC50 [2, 15] [nM]	IC50 [3, 16] [nM]	IC50 [4, 17] [nM]	IC50 [4, 18] [nM]	IC50 [5, 19] [nM]	IC50 [3, 20] [nM]	IC50 [4, 21] [nM]	IC50 [5, 22] [nM]	IC50 ([1]; Km ATP, read-out: IC50 Del19/T790M/C797S (nM), Km ATP) [nM]	IC50 ([2]; Km ATP, read-out: IC50 L858R/T790M/C797S (nM), Km ATP) [nM]	Structure (SMILES)
2.4	1.2	1.6	1.3	61.5	23.1	20.4	> 10000	517												CC(C)Nc1cc(Nc2ccnc(-c3cnn(S(=O)(=O)C4CC4)c3)n2)ncc1C#Cc1cnn(CCF)c1 [Example 20, N^2-(2-(1-(Cyclopropylsulfonyl)-1H-pyrazol-4-yl)pyrimidin-4-yl)-5-((1-(2-fluoroethyl)-1H-pyrazol-4-yl)ethynyl)-N^4-isopropylpyridine-2,4-diamine]
1.6		3.9		4.6			> 10000		1	0.4	3.4	4.3	6.8	14.6						O=S(=O)(C1CC1)n1cc(-c2nccc(Nc3cc(NC[C@H]4CC[C@@H](O)C4)c(C#Cc4cnn(C(F)F)c4)cn3)n2)cn1 [Example 306, (1R,3S)-3-(((2-((2-(1-(Cyclopropylsulfonyl)-1H-pyrazol-4-yl)pyrimidin-4-yl)amino)-5-((1-(difluoromethyl)-1H-pyrazol-4-yl)ethynyl)pyridin-4-yl)amino)methyl)cyclopentan-1-ol]
5.7		8.6		26.2			> 10000						> 10000							CC1(CO)CCN(c2cc(Nc3ccnc(-c4cnn(S(=O)(=O)C5CC5)c4)n3)ncc2C#Cc2cc(C(F)(F)F)n[nH]2)CC1 [Example 290, (1-(2-((2-(1-(Cyclopropylsulfonyl)-1H-pyrazol-4-yl)pyrimidin-4-yl)amino)-5-((3-(trifluoromethyl)-1H-pyrazol-5-yl)ethynyl)pyridin-4-yl)-4-methylpiperidin-4-yl)methanol]
0.3	0.2	0.8	0.1	1.3	1.3	1.2	7190	6.1					17.8							Cn1cc(C#Cc2cnc(Nc3ccnc(-c4cnn(S(=O)(=O)C5CC5)c4)n3)cc2N2CCC3(CCNC3=O)CC2)cn1 [Example 79, 8-(2-((2-(1-(Cyclopropylsulfonyl)-1H-pyrazol-4-yl)pyrimidin-4-yl)amino)-5-((1-methyl-1H-pyrazol-4-yl)ethynyl)pyridin-4-yl)-2,8-diazaspiro[4.5]decan-1-one]
0.3	0.2	0.2	0.1	0.3	0.2	0.2	47	0.4					0.6							CN1CC(n2cc(C#Cc3cnc(Nc4ccnc(-c5cnn(S(=O)(=O)C6CC6)c5)n4)cc3N3CCC(C)(CO)CC3)cn2)C1 [Example 148, (1-(2-((2-(1-(Cyclopropylsulfonyl)-1H-pyrazol-4-yl)pyrimidin-4-yl)amino)-5-((1-(1-methylazetidin-3-yl)-1H-pyrazol-4-yl)ethynyl)pyridin-4-yl)-4-methylpiperidin-4-yl)methanol]
1		1.1		3.1			7630				2.4	1	43.8	24.3						CN(C)C[C@H]1CC[C@@H](Nc2cc(Nc3ccnc(-c4cnn(S(=O)(=O)C5CC5)c4)n3)ncc2C#Cc2cnn(CC3CC3)c2)CC1 [Example 309, 5-((1-(Cyclopropylmethyl)-1H-pyrazol-4-yl)ethynyl)-N^2-(2-(1-(cyclopropylsulfonyl)-1H-pyrazol-4-yl)pyrimidin-4-yl)-N^4-((1s,4s)-4-((dimethylamino)methyl)cyclohexyl)pyridine-2,4-diamine]
0.9		1.3		4.3			> 10000						58.2		3.3	2.7	35.2			CN(C)CC1(C)CCN(c2cc(Nc3ccnc(-c4cnn(S(=O)(=O)C5CC5)c4)n3)ncc2C#CC2(C)CC2)CC1 [Example 406, 2-(1-(Cyclopropylsulfonyl)-1H-pyrazol-4-yl)-N-(4-(4-((dimethylamino)methyl)-4-methylpiperidin-1-yl)-5-((1-methylcyclopropyl)ethynyl)pyridin-2-yl)pyrimidin-4-amine]
0.5		0.7		1			3390						12.2		0.5	0.6	6.5	1	0.1	CN(C)CCC1CCCN(c2cc(Nc3ccnc(-c4cnn(S(=O)(=O)C5CC5)c4)n3)ncc2C#Cc2cnn(C)c2)C1 (stereo not shown) [Example 396, 2-(1-(Cyclopropylsulfonyl)-1H-pyrazol-4-yl)-N-(4-(3-(2-(dimethylamino)ethyl)piperidin-1-yl)-5-((1-methyl-1H-pyrazol-4-yl)ethynyl)pyridin-2-yl)pyrimidin-4-amine]
1.8		26.1		37.7			> 10000						286							Cn1cnc(C#Cc2cnc(Nc3ccnc(-c4cnn(S(=O)(=O)C5CC5)c4)n3)cc2NCC(C)(C)CO)c1 [Example 224, 3-((2-((2-(1-(Cyclopropylsulfonyl)-1H-pyrazol-4-yl)pyrimidin-4-yl)amino)-5-((1-methyl-1H-imidazol-4-yl)ethynyl)pyridin-4-yl)amino)-2,2-dimethylpropan-1-ol]
0.7		0.9		1.8			> 10000		0.7	0.6	2.1	2.8	40.4	8.4						CC1(CO)CCN(c2cc(Nc3ccnc(-c4cnn(S(=O)(=O)C5CC5)c4)n3)ncc2C#Cc2csc(CN3CCOCC3)n2)CC1 [Example 189, (1-(2-((2-(1-(Cyclopropylsulfonyl)-1H-pyrazol-4-yl)pyrimidin-4-yl)amino)-5-((2-(morpholinomethyl)thiazol-4-yl)ethynyl)pyridin-4-yl)-4-methylpiperidin-4-yl)methanol]
0.9		1.5		10.3			> 10000		0.9	1.1	3.3	13.5	288	26.8						CN(C)CC1(F)CCN(c2cc(Nc3ccnc(-c4cnn(S(=O)(=O)C5CC5)c4)n3)ncc2C#Cc2cnn(C3CC3)c2)CC1 [Example 300, N-(5-((1-Cyclopropyl-1H-pyrazol-4-yl)ethynyl)-4-(4-((dimethylamino)methyl)-4-fluoropiperidin-1-yl)pyridin-2-yl)-2-(1-(cyclopropylsulfonyl)-1H-pyrazol-4-yl)pyrimidin-4-amine]
0.3		0.4		0.7			1260						13		0.6	0.8	4.4			CN(C)CCC1CCN(c2cc(Nc3ccnc(-c4cnn(S(=O)(=O)C5CC5)c4)n3)ncc2C#CC2(C)CC2)CC1 [Example 407, 2-(1-(Cyclopropylsulfonyl)-1H-pyrazol-4-yl)-N-(4-(4-(2-(dimethylamino)ethyl)piperidin-1-yl)-5-((1-methylcyclopropyl)ethynyl)pyridin-2-yl)pyrimidin-4-amine]
2.6		1.9		7.5			> 10000		3.1	1.1	6.9	4.7	29.7	23.9						CC1(CO)CCN(c2cc(Nc3ccnc(-c4cnn(S(=O)(=O)C5CC5)c4)n3)ncc2C#Cc2cn(CC(F)F)c3ccncc23)CC1 [Example 249, (1-(2-((2-(1-(Cyclopropylsulfonyl)-1H-pyrazol-4-yl)pyrimidin-4-yl)amino)-5-((1-(2,2-difluoroethyl)-1H-pyrrolo[3,2-c]pyridin-3-yl)ethynyl)pyridin-4-yl)-4-methylpiperidin-4-yl)methanol]

Structure (SMILES)	IC50 [1, 6] [nM]	IC50 [1, 7] [nM]	IC50 [2, 8] [nM]	IC50 [2, 9] [nM]	IC50 [3, 10] [nM]	IC50 [3, 11] [nM]	IC50 [4, 12] [nM]	IC50 ([5]; IC50 WT (nM), 100 μM ATP) [nM]	IC50 [5, 13] [nM]	IC50 [1, 14] [nM]	IC50 [2, 15] [nM]	IC50 [3, 16] [nM]	IC50 [4, 17] [nM]	IC50 [4, 18] [nM]	IC50 [5, 19] [nM]	IC50 [3, 20] [nM]	IC50 [4, 21] [nM]	IC50 [5, 22] [nM]	IC50 ([1]; Km ATP, read-out: IC50 Del19/T790M/C797S (nM), Km ATP) [nM]	IC50 ([2]; Km ATP, read-out: IC50 L858R/T790M/C797S (nM), Km ATP) [nM]
CN(C)C[C@H]1CC[C@H](CNc2cc(Nc3ccnc(-c4cnn(S(=O)(=O)C5CC5)c4)n3)ncc2C#Cc2cnn(C)c2)CC1 [Example 53, N^2-(2-(1-(Cyclopropylsulfonyl)-1H-pyrazol-4-yl)pyrimidin-4-yl)-N^4-(((1r,4r)-4-((dimethylamino)methyl)cyclohexyl)methyl)-5-((1-methyl-1H-pyrazol-4-yl)ethynyl)pyridine-2,4-diamine]		0.4		0.3		5.9	141		142											

Reference: patent publication US11981658B2, “Substituted aminopyridine compounds as EGFR inhibitors” (YUHAN CORPORATION, priority 2021, dated 2024)
